Laboratory results from patent publication US20170226139A1, “CRYSTALLINE SALTS OF (Z)-O-OCTADEC-9-EN-1-YL O,O-DIHYDROGEN PHOSPHOROTHIOATE” (priority 2013, published 2017).
Read-outs that look alike come from different tables or passages of the source.

Experiments:
[1] = system: S. typhimurium strains TA98, TA100, TA1535 and TA1537 and E. coli strain WP2uvrA; type: cell-based
Description: An Ames assay was conducted on Rx100.Lysine using S. typhimurium strains TA98, TA100, TA1535 and TA1537 and E. coli strain WP2uvrA. Two trials were performed. […] See Tables 38A and 38B, respectively. In the second trial, doses ranged from 0.160 to 16 μg/plate with some strains tested with activation and others without activation.

[2] = Rx100 salt screening (solid formation, XRPD wet/dry, filterability, exposure to RH > 90%); details: for Filterability / Crystallinity / Polymorphic behavior: Rx100 salt formed with the named base; for Crystallinity / Polymorphic behavior: XRPD; for All solvents were evaporated to get a gel: label = base, nature/filterability of the solid; for ON PLATE: stage 2 round 2, Rx100 free acid + 1 eq base (label = base)
Description: We designed a complex and unconventional screening regime to screen for Rx100 crystalline salts. […] The screening regime is described as follows.
Rx100.FA in the form of a viscous liquid and eighteen counter ions were used as starting materials. These counter ions are listed and numbered in Table 4. The numbers will be used for grouping the resulting solids. The screening was performed in three stages.
Stage one (1) included screening 11 counter ions: sodium hydroxide, ammonium hydroxide, ethylenediamine, diethylamine, tromethamine (Tris), hydroxyethyl morpholine, benzathine, dimethylamino ethanol, L-Arginine, L-Lysine, L-Histidine. […] In stage 1, we performed three rounds of experiment.
In the first round of experiment, four (4) solvent systems, i.e., isopropyl alcohol (IPA), diethyl ether (DEE), IPA:water (a mixture at a volume ratio of 95:5) and tetrahydrofuran (THF), were used. Thus in this first round of screening, 44 individual base-acid reactions were conducted in 44 vials.
First, Rx100.FA and each of the bases were mixed in a vial. […] In each of the 44 vials, 211.1 μL of the prepared liquid, which was equivalent to about 35 mg of Rx100.FA, was first dispensed. Then, one equivalent (molar) of each of the 11 bases was dispensed in its corresponding vial. For example, the base sodium hydroxide was added to vials 1, 12, 23 and 34. Similarly, L-histidine was added to vials 11, 22, 33 and 44. Observations were recorded upon addition of the bases in to Rx100.FA.
Second, the solvent in each mixture was depleted. All vials containing the mixtures of Rx100.FA and each of the bases were left under moderate vacuum and nitrogen bleed at room temperature overnight to evaporate the solvent. The vials were then kept under full vacuum for about an hour to make sure the solvents (ethanol and water) are evaporated. Observations on formation of solid upon evaporation were recorded.
Third, solvents were added in each vial to induce solid formation. In each vial, a stir bar and one of the four selected solvents (each 5 volumes with respect to the Rx100.FA) were added. The vials were then capped. IPA was added to the first set of 11 vials (1-11), DEE added to the second set of 11 vials (12-22), IPA:water added to the third set of 11 vials (23-33), and THF added to the fourth set of 11 vials (34-44). The vials were left at room temperature while stirring for at least 5 hours. Observations were recorded.
The first set of XRPD analyses were recorded as “wet” samples. The solids were dried under vacuum for 1 hour and at room temperature followed by XRPD as “dry” sample. The dry solid was then exposed to relative humidity of more than 90% overnight followed by XRPD analysis. For XRPD naming, a number and a letter were used. The number refers to the counter ion and the letter refers to the chronological discovered XRPD pattern of that particular salt.
In the second round of experiment of stage one, another four (4) solvent systems, i.e., methanol (MeOH), tert-Butyl methyl ether (tBME), ethyl acetate and toluene, were used in the same 44 vials as used in the first round experiment. The solvents in all 44 vials from the first round were evaporated to dryness under vacuum and nitrogen bleed. The 4 new solvents were then added into the vials. Methanol was added to the first set of 11 vials (1-11), tBME added to the second set of 11 vials (12-22), Ethyl acetate added to the third set of 11 vials (23-33), and Toluene added to the fourth set of 11 vials (34-44). The same procedure as in the first round of experiment was followed for these new solvents and samples were taken for XRPD analysis.
In the third round of experiment, effect of base equivalence was assessed. […] After addition of the extra base, the previous solvent was evaporated and new solvents added.

[3] = system: Cultured human peripheral lymphocytes cells; type: cell-based; details: for Aberrant Cells Mean % −g: excluding gaps only; for Aberrant Cells Mean % +g: plus cells with gaps only
Description: Cultured human peripheral lymphocytes cells were incubated in vitro with Rx100.Lysine for 3 hours with and without S9 mix and for 24 hours without S9 mix. For Rx100.Lysine, concentrations ranging from 3.39 to 500 μg/mL were examined in both treatment conditions. Adjusting for purity, the concentration ranges were 3.06 to 452 μg/mL. […] This increase was just above the historical vehicle control range (0 to 2.0%) for 3 hour treatment without metabolic activation. Thus the response observed is a weak positive and of questionable biological significance cytotoxicity was present just below the acceptable limit of 50±5% for this assay.
Thus, Rx100.Lysine was considered negative for inducing chromosome aberrations, polyploidy and endoreduplication, in cultured human peripheral blood lymphocytes following a 3 hour treatment with and a 24 treatment without metabolic activation.

[4] = Single subcutaneous dose pharmacokinetics in irradiated and unirradiated mice; type: in vivo, C57BL/6 mice; details: single SC dose 1 mg/kg
From the text: We performed a randomized, open-label, single-dose, four-arm, subcutaneously-administered, study of the pharmacokinetics of Rx100.Ammonia and Rx100.Lysine in irradiated and unirradiated C57BL/6 mice to evaluate the effect of salt form and irradiation on extravascular pharmacokinetics. The purpose of this study was to evaluate the pharmacokinetic parameters for two salt forms of Rx100 (Lysine and Ammonia) in healthy and PB irradiated (IR) mice when administered as a single dose. Each animal received a 1 mg/kg dose of Rx100.Lysine or Rx100.Ammonia. The animals receiving Rx100.Lysine or Rx100.Ammonia after irradiation were dosed 26±2 hours after irradiation and sampling times are relative to the time of test article dosing.
More specifically, randomized, acclimated, C57BL/6 mice were administered Rx100.Lysine or Rx100.Ammonia (10 mM L-histidine in sterile water for injection, or 1% ethanol, 2% propylene glycol in PBS, respectively) as a single dose as indicated in Table 25.
Blood was collected from 4 male and 4 female mice via cardiac puncture at pre-defined time points relative to test article dosing (0.5, 1, 2, 4, 6, 8, 12, 18, 24, and 48 hours) and collected into micro plasma separator vials (BD Microtainer®) containing lithium heparin. Blood was maintained on ice until centrifugation and subsequent processing. Blood draws were a terminal procedure. Plasma was frozen at −80° C. until submitted for bioanalysis. Sample collection was completed in September 2012. Samples were transferred to Covance in December 2013, and sample analysis was complete in the first quarter of 2014.
A total of 160 male and 160 female C57BL/6 10-12 week old mice were used in this study. Animals were randomized with weight stratification into treatment groups and given a second ear tag. Animals were acclimated for 16-19 days (See below Table 26). Prior to irradiation or dosing (in non-irradiated groups), animals were weighed a second time which was the basis of the animal dose delivered.
TLDs were used for dosimetry and confirmation of the delivered dose. TLDs were analyzed by MD Anderson and have a +/−5% accuracy. A total of 19 dosimeters were used with a mean measured dose of 15.33±0.166 Gy.
Analysis was performed using qualified and validated Phoenix® WinNonlin® Software. The final data provided was imported into Phoenix® WinNonlin®. All data presented in the tables and figures within the results section of this report were generated using the validated Phoenix® WinNonlin® Software.

[5] = 3-hour treatment without metabolic activation, positive control 1.00 μg/mL
[6] = 24-hour treatment without metabolic activation, positive control 0.300 μg/mL
[7] = + IR (irradiated mice), whole group (not split by gender), 1 mg/kg
[8] = healthy mice, whole group (not split by gender), 1 mg/kg
[9] = irradiated mice (15.6 Gy, dosed 26 ± 2 h after), F, 1 mg/kg
[10] = irradiated mice (15.6 Gy, dosed 26 ± 2 h after), M, 1 mg/kg
[11] = 3-hour treatment with metabolic activation, positive control 25.0 μg/mL

Nc1ccc2cc3ccccc3cc2c1 [2-aminoanthracene]
Revertant Colony Counts (Mean ± SD) ([1]; TA100, with metabolic activation, positive control 2.5 μg/plate): 2106 ± 68 ^N
Revertant Colony Counts (Mean ± SD) ([1]; TA1535, with metabolic activation, positive control 2.5 μg/plate): 205 ± 11 ^N
Revertant Colony Counts (Mean ± SD) ([1]; TA1537, with metabolic activation, positive control 2.5 μg/plate): 176 ± 19 ^N C
Revertant Colony Counts (Mean ± SD) ([1]; WP2uvrA, with metabolic activation, positive control 25.0 μg/plate): 634 ± 14 ^N

O=[N+]([O-])c1ccc2c(c1)Cc1ccccc1-2 [2-nitrofluorene]
Revertant Colony Counts (Mean ± SD) ([1]; Without Metabolic Activation, TA98, positive control 1.0 μg/plate): 329 ± 65 ^N

NCCCC[C@@H](N)C(=O)O [D-Lysine]
Filterability [2]: no
Crystallinity [2]: yes
Polymorphic behavior [2]: Polymorphic on XRPD
Solid upon evaporation (Y/N) ([2]; stage 3, 35 mg Rx100 free acid + base (label = base), 1.05 eq, L-lysine 2.00 eq): Gel
All solvents were evaporated to get a gel ([2]; stage 3, 1.05 eq, L-lysine 2.00 eq, solvent MeOH:Water [9:1]): Greasy.
All solvents were evaporated to get a gel ([2]; stage 3, 1.05 eq, L-lysine 2.00 eq, solvent MeOH): Greasy.

COc1ccc2nc3cc(Cl)ccc3c(NCCCNCCCl)c2c1 [ICR-191]
Revertant Colony Counts (Mean ± SD) ([1]; Without Metabolic Activation, TA1537, positive control 2.0 μg/plate): 562 ± 33 ^N

[K+].[OH-] [KOH]
ON PLATE ([2]; Ethyl acetate): Greasy
ON PLATE ([2]; IPA:water (1:1)): Pasty

CO[C@@]12[C@H](COC(N)=O)C3=C(C(=O)C(C)=C(N)C3=O)N1C[C@@H]1N[C@@H]12 [Mitomycin C]
Endoreduplicate Mean % [3, 5]: 0.0%
Polyploidy Mean % [3, 5]: 0.0%
Aberrant Cells Mean % −g [3, 5]: 57.0%
Aberrant Cells Mean % +g [3, 5]: 59.0%
Endoreduplicate Mean % [3, 6]: 0.0%
Polyploidy Mean % [3, 6]: 0.0%
Aberrant Cells Mean % −g [3, 6]: 58.0%
Aberrant Cells Mean % +g [3, 6]: 61.0%

[K+] [Potassium]
Filterability [2]: no
Crystallinity [2]: yes
Polymorphic behavior [2]: Polymorphic on XRPD

CCCCCCCC/C=C\CCCCCCCCOP(O)(O)=S [Rx100.Ammonia, (Z)—O-octadec-9-en-1-yl O,O-dihydrogen phosphorothioate]
CL ([4]; IR females): 10.5 mL/min/kg
AUC ([4]; IR females, 1 mg/kg): 1591 ng·h/mL
CL ([4]; IR males): 9.68 mL/min/kg
AUC ([4]; IR males, 1 mg/kg): 1721 ng·h/mL
half-life, change after irradiation ([4]; IR versus healthy mice): no change
CL ([4]; healthy females): 14.5 mL/min/kg
exposure (AUC) ([4]; healthy females, 1 mg/kg): 1152 ng·h/mL
CL ([4]; healthy males): 11 mL/min/kg
AUC ([4]; healthy males, 1 mg/kg): 1521 ng·h/mL
Tmax ([4]; healthy mice, 1 mg/kg): 30 to 60 min
Tmax ([4]; irradiated (IR) mice, 26±2 hours after 15.6 Gy, 1 mg/kg): 30 to 60 min
AUCINF_obs [4, 7]: 1644.99 ng·h/mL
CLss_F [4, 7]: 10.132 mL/min/kg
Cmax [4, 7]: 466.71 ng/mL
HL_Lambda_z [4, 7]: 1.37 h
Vz_F [4, 7]: 1.20034 L/kg
AUCINF_obs ([4]; healthy mice, F, 1 mg/kg): 1152.19 ng·h/mL
CLss_F ([4]; healthy mice, F, 1 mg/kg): 14.466 mL/min/kg
Vz_F ([4]; healthy mice, F, 1 mg/kg): 1.72837 L/kg
AUCINF_obs ([4]; healthy mice, M, 1 mg/kg): 1521.44 ng·h/mL
CLss_F ([4]; healthy mice, M, 1 mg/kg): 10.954 mL/min/kg
Vz_F ([4]; healthy mice, M, 1 mg/kg): 1.3407 L/kg
AUCINF_obs [4, 8]: 1342.00 ng·h/mL
CLss_F [4, 8]: 12.419 mL/min/kg
Cmax [4, 8]: 383.75 ng/mL
HL_Lambda_z [4, 8]: 1.78 h
Vz_F [4, 8]: 1.91818 L/kg
AUCINF_obs [4, 9]: 1591.05 ng·h/mL
CLss_F [4, 9]: 10.475 mL/min/kg
Vz_F [4, 9]: 1.22969 L/kg
AUCINF_obs [4, 10]: 1720.87 ng·h/mL
CLss_F [4, 10]: 9.685 mL/min/kg
Vz_F [4, 10]: 1.27697 L/kg

O=P1(N(CCCl)CCCl)NCCCO1 (centres unmarked) [cyclophosphamide, reference compound]
Cytotoxicity (% of Control) [3, 11]: 12 % of Control
Endoreduplicate Mean % [3, 11]: 0.0%
Polyploidy Mean % [3, 11]: 0.0%
Aberrant Cells Mean % −g [3, 11]: 58.0%
Aberrant Cells Mean % +g [3, 11]: 65.0%

[N-]=[N+]=[N-] [sodium azide]
Revertant Colony Counts (Mean ± SD) ([1]; Without Metabolic Activation, TA100, positive control 2.0 μg/plate): 969 ± 137 ^N
Revertant Colony Counts (Mean ± SD) ([1]; Without Metabolic Activation, TA1535, positive control 2.0 μg/plate): 863 ± 45 ^N
